US4861889A, “3-(2,3,4,5,6-pentafluorophenoxy)-8-azabicyclo[3.2.1]octanes” (Hoechst-Roussel Pharmaceuticals, Inc., priority 1988, dated 1989)
Counter-ions that a name gives are not always drawn.

Columns and labels:
[1] = phenyl-p-benzoquinone writhing assay (analgesic activity); assay type: in vivo, male mice (Charles River, CD-1); conditions: Mus musculus, sc, mice; for inhibition in vivo at 20 mg/kg: s.c., read-out: % Inhibition of writhing at a screening dose of 20 mg/kg, s.c.
Method: The compounds of this invention are useful as analgesic agents due to their ability to alleviate pain in mammals. The procedure employed to determine analgetic utility is a modification of the phenyl-p-benzoquinone writhing assay in mice, a standard assay for analgesia [Proc. Soc. Exptl. Bio. Med., 95, 729 (1957)]. Pursuant to the modified procedure phenyl-p-benzoquinone (Eastman, 12.5 mg) is dissolved in 5 ml of 95% ethanol and the solution is diluted to a total volume of 100 ml with distilled water. The solution is administered to the subject mice intraperitoneally at a dose of 10 ml per kg of body weight. A characteristic "writhe"an inward rotation of one or more feet with twisting and turning of the trunk, drawing in of the abdominal wall, lordosis and arching of the back, is produced.
A total of 28 male mice (Charles River, CD-1), weighing 18 to 30 grams, are employed for a time response. The subject animals receive food and water ad libitum. Test compounds are dissolved in distilled water, or suspended in distilled water containing one drop of a suitable surfactant, such as Tween-80.
Four groups of five animals (20 animals) are given the test compound subcutaneously (s.c.) or orally (p.o.) at 15, 30, 45 and 60 minutes prior to administration of the phenyl-p-quinone. A control group (2 animals per group) receive an equal volume of the vehicle. After the administration of the phenyl-p-quinone, the mice are place separately in one liter beakers, and after five minutes, are observed for ten minutes. The number of writhes for each animal is recorded. The following formula is used to compute the percent inhibition: [formula]
The time period with the greatest percent of inhibition is considered the peak time.

[2] = L-5-hydroxytryptophan (5-HTP) potentiation assay, antidepressant activity; assay type: in vivo, male Wistar rats; conditions: Rattus norvegicus, ip, read-out: 5-HTP Potentiation ED50
Method: The compounds of this invention are also useful as antidepressants by virtue of their ability to elicit an antidepressant response in mammals. Antidepressant activity is determined by the L-5-hydroxytryptophan potentiation assay in rats described in Brit. J. Pharmacol., 20, pp. 106-120 (1963) and J. Med. Chem., 24, 74 (1980).
Groups of six male Wistar rats (150-200 grams each) are used in this assay. Pursuant to this procedure pargyline hydrochloride is prepared and administered four hours before testing by subcutaneous injection at 75 mg/kg in 1% saline and at dosage volume of 1.0 ml/kg. Thirty minutes before testing, drugs are prepared and dosed using distilled water and, if insoluble, a suitable surfactant is added. Control groups receive vehicle. Drugs are routinely administered intraperitoneally at a dosage volume of 10 ml/kg. L-5-hydroxytryptophan (5-HTP) is prepared at 1.0 mg/kg in distilled water and is administered intraperioneally in volumes proportional to 10 ml/kg. Drugs are administered in a randomized manner and 15 minutes post 5-HTP treatment, the animals are observed for 15 minutes.
Potentiation is expressed as normalized percent potentiation relative to vehicle control.

[3] = antihypertensive activity, indirect tail cuff method (SHR); assay type: in vivo, spontaneous hypertensive rat; conditions: treated three days, drop measured on third day, decrease in mean arterial blood pressure
Method: The compounds of this invention are also useful as antihypertensive agents due to their ability to depress blood pressure in mammals. Antihypertensive activity is measured in the spontaneous hypertensive rat by the indirect tail cuff method described in "Methods in Pharmacology", A. Schwartz, Ed., Vol. I, Appleton-Century Crofts, New York, N.Y., 1971, p. 135. In this procedure a group of five animals is treated orally for three days with the test compound in relation to a control group of the same number. The drop in blood pressure is measured on the third day following administration. The antihypertensive activities of representative compounds, expressed as a decrease in mean arterial blood pressure (in mm Hg), are given in Table 3 along with the activity of a standard compound.

[4] = Metrazol lethality assay (MTZ), anticonvulsant activity; assay type: in vivo, male mice (Charles River, CD-1); conditions: Mus musculus, po, mice, protection against Metrazol lethality
Method: (§1) The compounds of this invention are also useful as anticonvulsants due to their anticonvulsant activity in mammals. Anticonvulsant activity is measured in male mice using the supramaximal electroshock (SES) assay described in Arch. Int. Pharmacodyn. 92, pp. 97-107, (1952) and the metrazol lethality assay (MTZ) described in J. Pharmacol. Exp. Ther., 81, 402 (1944).
Groups of male mice (Charles River, CD-1), weighing 18 to 30 grams are employed in the Metrazol lethality assay. Test compounds are dissolved in distilled water or if insoluble, suspended in water, to which a surfactant, such as Tween-80 is added. The test compounds are administered orally, the administered dose being dissolved or suspended in 10 ml of solution or suspension per kg of animal body weight. Control animals (2 mice/group) receive water or water and Tween-80, i.e., the vehicle for administration of the test compound. Metrazol (pentylenetetrazol) is dissolved in water (concentration 225 mg of Metrazol/10 ml of solution), and the solution is administered subcutaneously to groups of five animals each at one or more time intervals of 15, 30, 60, 90, or 120 minutes after administration of the test compound. The number of animal alive 15 minutes after treatment with Metrazol is determined and recorded. The following formula is employed to calculate the percent protection against Metrazol lethality. [formula] […]

[5] = supramaximal electroshock (SES) assay, anticonvulsant activity; assay type: in vivo, male mice (Charles River, CD-1); conditions: Mus musculus, ip, mice
Method: as §1
Groups of male mice (Charles River, CD-1) weighing 18 to 30 g are employed in the SES assay. Test compounds are dissolved in distilled water, or if insoluble, suspended in water containing one drop of a surfactant, such as Tween-80. Test compounds are generally administered intraperitoneally at a dose of 10 ml of solution, or suspension, per kg of animal body weight. The output terminals of an A.C. shocker, which delivers 206 volts rms for 300 msec, are placed across the animals' eyes, an electrode paste coating assuring contact of the terminals with the eyes. The test compound is administered and thereafter the subject animals are shocked.
Protection is expressed as normalized percent inhibition relative to vehicle control. [formula] A time response is carried out using 6 animals per group. Animals are tested at 30, 60 and 120 minutes post drug. Additional time periods are tested if indicated by previous tests. A dose range determination is generally reserved for those compounds which inhibit convulsions by greater than about 45-55% at the screening dose employed at the time the test was performed. When the peak activity time has been determined, a dose response is initiated, using 10 animals per group at that time period.
The anticonvulsant activity of several of the compounds of this invention as per the SES and MTZ assay procedures is provided in Table 2.

## Cc1[nH]c2ccccc2c1CCCN1[C@@H]2CC[C@H]1C[C@@H](Oc1c(F)c(F)c(F)c(F)c1F)C2 [(ENDO)-3-(2,3,4,5,6-PENTAFLUOROPHENOXY)-8-[3-(2-METHYLINDOL-3-YL)PROPYL]-8- AZABICYCLO[3.2.1]OCTANEHYDROCHLORIDE]
[1]
  inhibition in vivo at 20 mg/kg: 39%

## COc1cc2onc(CCCN3[C@@H]4CC[C@H]3C[C@@H](Oc3c(F)c(F)c(F)c(F)c3F)C4)c2cc1OC [(ENDO)-3-(2,3,4,5,6-PENTAFLUOROPHENOXY)-8-[(5,6-DIMETHOXY-1,2-BENZISOXAZOL- 3-YL)PROPYL]-8-AZABICYCLO[3.2.1]OCTANEHYDROCHLORIDE]
[1]
  inhibition in vivo at 20 mg/kg: 37%
[2]
  ED50: 21.1 mg/kg

## Fc1ccc2c(CCCN3[C@@H]4CC[C@H]3C[C@@H](Oc3c(F)c(F)c(F)c(F)c3F)C4)noc2c1 [(ENDO)-8-[3-(6-FLUORO-1,2-BENZISOXAZOL-3-YL)PROPYL]-3-(2,3,4,5,6-PENTAFLUOROPHENOXY)-8-AZABICYCLO[3.2.1OCTANE HYDROCHLORIDE]
[1]
  inhibition in vivo at 20 mg/kg: 45%

## Cc1[nH]c2ccccc2c1CCCN1[C@@H]2CC[C@H]1C[C@H](Oc1c(F)c(F)c(F)c(F)c1F)C2 [(EXO)-3-(2,3,4,5,6-PENTAFLUOROPHENOXY)-8-[3-(2-METHYLINDOL-3-YL)PROPYL]-8-AZABICYCLO[3.2.1]OCTANE HYDROCHLORIDE]
[1]
  inhibition in vivo at 20 mg/kg: 42%

## Fc1ccc2c(CCCN3[C@@H]4CC[C@H]3C[C@H](Oc3c(F)c(F)c(F)c(F)c3F)C4)noc2c1 [(EXO)-8-[3-(6-FLUORO-1,2-BENZISOXAZOL-3-YL)PROPYL]-3-(2,3,4,5,6-PENTAFLUOROPHENOXY)-8-AZABICYCLO[3.2.1]OCTANE HYDROCHLORIDE]
[1]
  inhibition in vivo at 20 mg/kg: 49%
[3]
  mm dec. in BP at 50 mg/kg p.o.: 48 mm

## COc1ccccc1N1CCN(CCCN2[C@@H]3CC[C@H]2C[C@@H](Oc2c(F)c(F)c(F)c(F)c2F)C3)CC1 [(endo)-3-(2,3,4,5,6-pentafluorophenoxy)-8-[3-[4-(2-methoxyphenyl)piperazin-1-yl]propyl]-8-azabicyclo[3.2.1]octane]
[1]
  inhibition in vivo at 20 mg/kg: 55%

## CP(C)(=O)CN1[C@@H]2CC[C@H]1C[C@@H](Oc1c(F)c(F)c(F)c(F)c1F)C2 [(endo)-3-(2,3,4,5,6-pentafluorophenoxy)-8-[(dimethylphosphinyl)methyl]-8-azabicyclo[3.2.1]octane]
[2]
  ED50: 10.8 mg/kg

## Fc1c(F)c(F)c(O[C@H]2C[C@H]3CC[C@@H](C2)N3)c(F)c1F [(endo)-3-(2,3,4,5,6-pentafluorophenoxy)-8-azabicyclo[3.2.1]octane hydrochloride]
[2]
  ED50: 15.6 mg/kg

## CN1[C@@H]2CC[C@H]1C[C@](Oc1c(F)c(F)c(F)c(F)c1F)(c1ccccc1)C2 [(endo)-3-(2,3,4,5,6-pentafluorophenoxy)-8-methyl-3-phenyl-8-azabicyclo[3.2.1]octane hydrochloride]
[1]
  inhibition in vivo at 20 mg/kg: 42%

## CN1[C@@H]2CC[C@H]1C[C@@H](Oc1c(F)c(F)c(F)c(F)c1F)C2 [(endo)-3-(2,3,4,5,6-pentafluorophenoxy)-8-methyl-8-azabicyclo[3.2.1]octane]
[2]
  ED50: 16.2 mg/kg

## NC(=O)N1[C@@H]2CC[C@H]1C[C@@H](Oc1c(F)c(F)c(F)c(F)c1F)C2 [(endo)-8-aminocarbonyl-3-(2,3,4,5,6-pentafluorophenoxy)-8-azabicyclo[3.2.1]octane]
[1]
  inhibition in vivo at 20 mg/kg: 38%
[4]
  ED50: 12.7 mg/kg
[5]
  ED50: 25.2 mg/kg

## CN(C)C(=O)N1[C@@H]2CC[C@H]1C[C@H](Oc1c(F)c(F)c(F)c(F)c1F)C2 [(exo)-3-(2,3,4,5,6-pentafluorophenoxy)-8-[(N,N-dimethylamino)carbonyl]-8-azabicyclo[3.2.1]octane]
[1]
  inhibition in vivo at 20 mg/kg: 39%

## Fc1c(F)c(F)c(O[C@@H]2C[C@H]3CC[C@@H](C2)N3)c(F)c1F [(exo)-3-(2,3,4,5,6-pentafluorophenoxy)-8-azabicyclo[3.2.1]octane]
[2]
  ED50: 8.4 mg/kg

## NC(=O)N1[C@@H]2CC[C@H]1C[C@H](Oc1c(F)c(F)c(F)c(F)c1F)C2 [(exo)-8-(aminocarbonyl)-3-(2,3,4,5,6-pentafluorophenoxy)-8-azabicyclo[3.2.1]octane]
[1]
  inhibition in vivo at 20 mg/kg: 32%

## CC(=O)N1[C@@H]2CC[C@H]1C[C@H](Oc1c(F)c(F)c(F)c(F)c1F)C2 [(exo)-8-acetyl-3-(2,3,4,5,6-pentafluorophenoxy)-8-azabicyclo[3.2.1]octane]
[4]
  ED50: 41.9 mg/kg

## CC(=O)Oc1ccccc1C(=O)O [Asprin, reference compound]
[1]; column head s.c., read-out: ED50 (calculated dosage at which a 50% inhibition of writhing is achieved)
  ED50: 32.8 mg/kg

## CN(C)CCC=C1c2ccccc2CCc2ccccc21 [amitriptyline, reference compound]
[2]; rats
  ED50: 7.1 mg/kg

## CN1[C@@H]2CC[C@H]1C[C@@H](Oc1c(F)c(F)c(F)c(F)c1F)C2 [endo-3-(2,3,4,5,6-pentafluorophenoxy)-8-methyl-8-azabicyclo[3.2.1]octane oxalate]
[1]
  inhibition in vivo at 20 mg/kg: 49%

## CC(=O)N1[C@@H]2CC[C@H]1C[C@@H](Oc1c(F)c(F)c(F)c(F)c1F)C2 [endo-8-acetyl-3-(2,3,4,5,6-pentafluorophenoxy)-8-azabicyclo[3.2.1]octane]
[5]
  ED50: 35.1 mg/kg

## CN1[C@@H]2CC[C@H]1C[C@H](Oc1c(F)c(F)c(F)c(F)c1F)C2 [exo-3-(2,3,4,5,6-pentafluorophenoxy)-8-methyl-8-azabicyclo[3.2.1]octane hydrochloride]
[1]
  inhibition in vivo at 20 mg/kg: 43%
[2]
  ED50: 13.4 mg/kg

## N=C(N)NCCN1CCCCCCC1 [guanethidine, reference compound]
[3]
  mm dec. in BP at 50 mg/kg p.o.: 20 mm

## CCC1(c2ccccc2)C(=O)NC(=O)NC1=O [phenobarbital, reference compound]
[5]
  ED50: 8.4 mg/kg
